Measured values from US10835461B2, “Bio-active material composite, preparing method thereof and cosmetic composition containing the same” (priority 2015, dated 2020).

Assay: Stability of pure vitamin C and YHC-Vc in aqueous solution (color, pH, vitamin C content) at 50° C. in airtight container for four weeks
Assay type: physicochemical

## O=C1O[C@H]([C@@H](O)CO)C(O)=C1O [vitamin C, ascorbic acid]
50° C., airtight glass container, four weeks, 3.0 wt % vitamin C solution or 10.0 wt % composite dispersion
  change of color: abrupt change of color in the order from clear (colorless) to yellow, orange, and then red
In 4 weeks, 50° C., airtight container
  pH: 2.52
At 50° C. for 4 weeks
  pH condition maintained: ~2
In four weeks at 50° C. in airtight container
  remaining amount of vitamin C: about 51%
